From ChEMBL document CHEMBL3044830, “Synthesis, characterization, antibacterial, antifungal, and immunomodulating activities of gatifloxacin derivatives” (Med Chem Res, 2010)

What was measured:
Trichophyton rubrum [1] = test: Antifungal activity against Trichophyton rubrum assessed as concentration required to obtain a zone of inhibition of 40 mm after 7 days by disk diffusion method; type: functional
Trichophyton rubrum [2] = test: Antifungal activity against Trichophyton rubrum assessed as concentration required to obtain a zone of inhibition of 20 mm after 7 days by disk diffusion method; type: functional
Proteus mirabilis [3] = test: Antibacterial activity against Proteus mirabilis assessed as concentration required to obtain a zone of inhibition of 10 mm after 18 to 24 hr by disc diffusion method; type: functional
Proteus mirabilis [4] = test: Antibacterial activity against Proteus mirabilis assessed as concentration required to obtain a zone of inhibition of 20 mm after 18 to 24 hr by disc diffusion method; type: functional
Proteus mirabilis [5] = test: Antibacterial activity against Proteus mirabilis assessed as concentration required to obtain a zone of inhibition of 5 mm after 18 to 24 hr by disc diffusion method; type: functional
Klebsiella pneumoniae [6] = test: Antibacterial activity against Klebsiella pneumoniae assessed as concentration required to obtain a zone of inhibition of 20 mm after 18 to 24 hr by disk diffusion method; type: functional
Klebsiella pneumoniae [7] = test: Antibacterial activity against Klebsiella pneumoniae assessed as concentration required to obtain a zone of inhibition of 10 mm after 18 to 24 hr by disk diffusion method; type: functional
Shigella flexneri [8] = test: Antibacterial activity against Shigella flexneri assessed as concentration required to obtain a zone of inhibition of 5 mm after 18 to 24 hr by disk diffusion method; type: functional
Escherichia coli [9] = test: Antibacterial activity against Escherichia coli assessed as concentration required to obtain a zone of inhibition of 20 mm after 18 to 24 hr by disk diffusion method; type: functional
Escherichia coli [10] = test: Antibacterial activity against Escherichia coli assessed as concentration required to obtain a zone of inhibition of 10 mm after 18 to 24 hr by disk diffusion method; type: functional
Klebsiella pneumoniae [11] = test: Antibacterial activity against Klebsiella pneumoniae assessed as concentration required to obtain a zone of inhibition of 5 mm after 18 to 24 hr by disk diffusion method; type: functional
Shigella flexneri [12] = test: Antibacterial activity against Shigella flexneri assessed as concentration required to obtain a zone of inhibition of 10 mm after 18 to 24 hr by disk diffusion method; type: functional
Shigella flexneri [13] = test: Antibacterial activity against Shigella flexneri assessed as concentration required to obtain a zone of inhibition of 20 mm after 18 to 24 hr by disk diffusion method; type: functional
Escherichia coli [14] = test: Antibacterial activity against Escherichia coli assessed as concentration required to obtain a zone of inhibition of 5 mm after 18 to 24 hr by disk diffusion method; type: functional
Bacillus subtilis [15] = test: Antibacterial activity against Bacillus subtilis assessed as concentration required to obtain a zone of inhibition of 20 mm after 18 to 24 hr by disk diffusion method; type: functional
Bacillus subtilis [16] = test: Antibacterial activity against Bacillus subtilis assessed as concentration required to obtain a zone of inhibition of 10 mm after 18 to 24 hr by disk diffusion method; type: functional
Bacillus subtilis [17] = test: Antibacterial activity against Bacillus subtilis assessed as concentration required to obtain a zone of inhibition of 5 mm after 18 to 24 hr by disk diffusion method; type: functional
Pseudomonas aeruginosa [18] = test: Antibacterial activity against Pseudomonas aeruginosa assessed as concentration required to obtain a zone of inhibition of 20 mm after 18 to 24 hr by disk diffusion method; type: functional
Pseudomonas aeruginosa [19] = test: Antibacterial activity against Pseudomonas aeruginosa assessed as concentration required to obtain a zone of inhibition of 10 mm after 18 to 24 hr by disk diffusion method; type: functional
Pseudomonas aeruginosa [20] = test: Antibacterial activity against Pseudomonas aeruginosa assessed as concentration required to obtain a zone of inhibition of 5 mm after 18 to 24 hr by disk diffusion method; type: functional
Citrobacter [21] = test: Antibacterial activity against Citrobacter assessed as concentration required to obtain a zone of inhibition of 20 mm after 18 to 24 hr by disk diffusion method; type: functional
Citrobacter [22] = test: Antibacterial activity against Citrobacter assessed as concentration required to obtain a zone of inhibition of 10 mm after 18 to 24 hr by disk diffusion method; type: functional
Citrobacter [23] = test: Antibacterial activity against Citrobacter assessed as concentration required to obtain a zone of inhibition of 5 mm after 18 to 24 hr by disk diffusion method; type: functional
Shigella sp. [24] = test: Antibacterial activity against Shigella typhi assessed as concentration required to obtain a zone of inhibition of 20 mm after 18 to 24 hr by disc diffusion method; type: functional
Shigella sp. [25] = test: Antibacterial activity against Shigella typhi assessed as concentration required to obtain a zone of inhibition of 5 mm after 18 to 24 hr by disc diffusion method; type: functional
T-cell [26] = test: Anti-inflammatory activity in Homo sapiens (human) T lymphocytes assessed as inhibition of PHA-induced [3H] thymidine uptake incubated for 72 hr prior to [3H]thymidine addition measured after 18 hr by liquid scintillation method; type: functional, cell-based
T-cell [27] = test: Anti-inflammatory activity in Homo sapiens (human) T lymphocytes assessed as inhibition of PHA-induced [3H] thymidine uptake at 3.12 ug/ml incubated for 72 hr prior to [3H]thymidine addition measured after 18 hr by liquid scintillation method; type: functional
T-cell [28] = test: Anti-inflammatory activity in Homo sapiens (human) T lymphocytes assessed as inhibition of PHA-induced [3H] thymidine uptake at 12.5 ug/ml incubated for 72 hr prior to [3H]thymidine addition measured after 18 hr by liquid scintillation method; type: functional
T-cell [29] = test: Anti-inflammatory activity in Homo sapiens (human) T lymphocytes assessed as inhibition of PHA-induced [3H] thymidine uptake at 50 ug/ml incubated for 72 hr prior to [3H]thymidine addition measured after 18 hr by liquid scintillation method; type: functional
Blood [30] = test: Antioxidant activity in Homo sapiens (human) whole blood assessed as inhibition of ROS production after 30 min by luminol-enhanced chemiluminescence assay; type: functional, tissue-based; conditions: 0.5 h
Blood [31] = test: Antioxidant activity in Homo sapiens (human) whole blood assessed as inhibition of ROS production at 12.5 ug/ml after 30 min by luminol-enhanced chemiluminescence assay; type: functional; conditions: 0.5 h
Blood [32] = test: Antioxidant activity in Homo sapiens (human) whole blood assessed as inhibition of ROS production at 50 ug/ml after 30 min by luminol-enhanced chemiluminescence assay; type: functional; conditions: 0.5 h
Blood [33] = test: Antioxidant activity in Homo sapiens (human) whole blood assessed as inhibition of ROS production at 100 ug/ml after 30 min by luminol-enhanced chemiluminescence assay; type: functional; conditions: 0.5 h
Fusarium solani [34] = test: Antifungal activity against Fusarium solani assessed as concentration required to obtain a zone of inhibition of 40 mm after 7 days by disk diffusion method; type: functional
Fusarium solani [35] = test: Antifungal activity against Fusarium solani assessed as concentration required to obtain a zone of inhibition of 20 mm after 7 days by disk diffusion method; type: functional
Candida albicans [36] = test: Antifungal activity against Candida albicans assessed as concentration required to obtain a zone of inhibition of 40 mm after 7 days by disk diffusion method; type: functional
Candida albicans [37] = test: Antifungal activity against Candida albicans assessed as concentration required to obtain a zone of inhibition of 20 mm after 7 days by disk diffusion method; type: functional
[38] = Antibacterial activity against Hofmanni bacterium assessed as concentration required to obtain a zone of inhibition of 5 mm after 18 to 24 hr by disc diffusion method
[39] = Antibacterial activity against Hofmanni bacterium assessed as concentration required to obtain a zone of inhibition of 20 mm after 18 to 24 hr by disc diffusion method
[40] = Antibacterial activity against Hofmanni bacterium assessed as concentration required to obtain a zone of inhibition of 10 mm after 18 to 24 hr by disc diffusion method
Proteus mirabilis [41] = test: Antibacterial activity against Proteus mirabilis assessed as zone of inhibition at 5 to 40 ug/ml after 18 to 24 hr by disc diffusion method relative to gatifloxacin; type: functional
Klebsiella pneumoniae [42] = test: Antibacterial activity against Klebsiella pneumoniae assessed as zone of inhibition at 5 to 40 ug/ml after 18 to 24 hr by disk diffusion method relative to gatifloxacin; type: functional
Shigella flexneri [43] = test: Antibacterial activity against Shigella flexneri assessed as zone of inhibition at 5 to 40 ug/ml after 18 to 24 hr by disk diffusion method relative to gatifloxacin; type: functional
Escherichia coli [44] = test: Antibacterial activity against Escherichia coli assessed as zone of inhibition at 5 to 40 ug/ml after 18 to 24 hr by disk diffusion method relative to gatifloxacin; type: functional
Staphylococcus aureus [45] = test: Antibacterial activity against methicillin-resistant Staphylococcus aureus assessed as zone of inhibition at 5 to 40 ug/ml after 18 to 24 hr by disk diffusion method relative to gatifloxacin; type: functional
Staphylococcus aureus [46] = test: Antibacterial activity against methicillin-resistant Staphylococcus aureus assessed as concentration required to obtain a zone of inhibition of 20 mm after 18 to 24 hr by disk diffusion method; type: functional
Staphylococcus aureus [47] = test: Antibacterial activity against methicillin-resistant Staphylococcus aureus assessed as concentration required to obtain a zone of inhibition of 5 mm after 18 to 24 hr by disk diffusion method; type: functional
Bacillus subtilis [48] = test: Antibacterial activity against Bacillus subtilis assessed as zone of inhibition at 5 to 40 ug/ml after 18 to 24 hr by disk diffusion method relative to gatifloxacin; type: functional
Pseudomonas aeruginosa [49] = test: Antibacterial activity against Pseudomonas aeruginosa assessed as zone of inhibition at 5 to 40 ug/ml after 18 to 24 hr by disk diffusion method relative to gatifloxacin; type: functional
Citrobacter [50] = test: Antibacterial activity against Citrobacter assessed as zone of inhibition at 5 to 40 ug/ml after 18 to 24 hr by disk diffusion method relative to gatifloxacin; type: functional
Shigella sp. [51] = test: Antibacterial activity against Shigella typhi assessed as zone of inhibition after 18 to 24 hr by disc diffusion method relative to gatifloxacin; type: functional
Shigella sp. [52] = test: Antibacterial activity against Shigella typhi assessed as concentration required to obtain a zone of inhibition of 10 mm after 18 to 24 hr by disc diffusion method; type: functional
[53] = Antibacterial activity against Hofmanni bacterium assessed as zone of inhibition after 18 to 24 hr by disc diffusion method relative to gatifloxacin

Row | Structure (SMILES) | Activity (Proteus mirabilis [3]) [µg/mL] | Activity (Proteus mirabilis [4]) [µg/mL] | Activity (Proteus mirabilis [5]) [µg/mL] | Activity (Klebsiella pneumoniae [6]) [µg/mL] | Activity (Klebsiella pneumoniae [7]) [µg/mL] | Activity (Shigella flexneri [8]) [µg/mL] | Activity (Escherichia coli [9]) [µg/mL] | Activity (Escherichia coli [10]) [µg/mL] | Activity (Klebsiella pneumoniae [11]) [µg/mL] | Activity (Shigella flexneri [12]) [µg/mL] | Activity (Shigella flexneri [13]) [µg/mL] | Activity (Escherichia coli [14]) [µg/mL] | Activity (Bacillus subtilis [15]) [µg/mL] | Activity (Bacillus subtilis [16]) [µg/mL] | Activity (Bacillus subtilis [17]) [µg/mL] | Activity (Pseudomonas aeruginosa [18]) [µg/mL] | Activity (Pseudomonas aeruginosa [19]) [µg/mL] | Activity (Pseudomonas aeruginosa [20]) [µg/mL] | Activity (Citrobacter [21]) [µg/mL] | Activity (Citrobacter [22]) [µg/mL] | further results
1 | COc1c(N2CCNC(C)C2)c(F)cc2c(=O)c(C(=O)O)cn(C3CC3)c12 (stereo not drawn) [GATIFLOXACIN] | 15 | 19 | 9 | 19 | 14 | 9 | 17 | 12 | 9 | 16 | 23 | 7.5 | 17 | 15 | 11 | 14 | 12 | 8 | 26 | 23 | Activity (Trichophyton rubrum [1]): 14 µg/mL; Activity (Trichophyton rubrum [2]): 12 µg/mL; Activity (Citrobacter [23]): 15 µg/mL; Activity (Shigella sp. [24]): 21 µg/mL; Activity (Shigella sp. [25]): 8 µg/mL; IC50 (T-cell [26]): > 50 µg/mL; inhibition at 3.12 µg/mL (T-cell [27]): -71.1%; inhibition at 12.5 µg/mL (T-cell [28]): -97.9%; inhibition at 50 µg/mL (T-cell [29]): -25.2%; IC50 (Blood [30]): 31 µg/mL; inhibition at 12.5 µg/mL (Blood [31]): 19.7%; inhibition at 50 µg/mL (Blood [32]): 66%; inhibition at 100 µg/mL (Blood [33]): 84.7%; Activity (Fusarium solani [34]): 18 µg/mL; Activity (Fusarium solani [35]): 12 µg/mL; Activity (Candida albicans [36]): 9 µg/mL; Activity (Candida albicans [37]): 8 µg/mL; Activity [38]: 8 µg/mL; Activity [39]: 15 µg/mL; Activity [40]: 13 µg/mL
2 | CO/N=C1\CN(c2nc3c(cc2F)c(=O)c(C(=O)O)cn3C2CC2)CC1CN.CS(=O)(=O)O (stereo not drawn) [GEMIFLOXACIN MESYLATE] | 11 | 12 | 10 | 12 | 11 | 7 | 10 | 9 | 10 | 8 | 13 | 7 | 8 | 7 | 5 | 10 | 9 | 8 | 11 | 9 | inhibition zone (IZ) (Proteus mirabilis [41]): 82.5%; inhibition zone (IZ) (Klebsiella pneumoniae [42]): 84.2%; inhibition zone (IZ) (Shigella flexneri [43]): 61.4%; inhibition zone (IZ) (Escherichia coli [44]): 75.72%; inhibition zone (IZ) (Staphylococcus aureus [45]): 69.8%; Activity (Staphylococcus aureus [46]): 14 µg/mL; Activity (Staphylococcus aureus [47]): 9 µg/mL; inhibition zone (IZ) (Bacillus subtilis [48]): 46.3%; inhibition zone (IZ) (Pseudomonas aeruginosa [49]): 75%; inhibition zone (IZ) (Citrobacter [50]): 42.83%; Activity (Citrobacter [23]): 7 µg/mL; inhibition zone (IZ) (Shigella sp. [51]): 75.5%; Activity (Shigella sp. [52]): 9 µg/mL; Activity (Shigella sp. [25]): 8 µg/mL; inhibition zone (IZ) [53]: 56.6%; Activity [38]: 5 µg/mL; Activity [39]: 8 µg/mL; Activity [40]: 7 µg/mL
